Assay results taken from US6488938B1, “Polylactic acid scleral plug” (Santen Pharmaceutical Co., Ltd., priority 1997, dated 2002).

Test: Release test of ganciclovir from scleral plug in phosphate buffered solution
Format: physicochemical
Settings: phosphate buffered solution (0.1 M, pH 7.4)
Description: The scleral plug produced in Example 1 was shaken in a phosphate buffered solution (0.1 M, pH 7.4) to release a drug (ganciclovir). The release medium was collected at predetermined intervals and replaced with a new buffer. These operations were repeated. Absorbance of the release medium at 254 nm was measured with a spectrophotometer, and an amount of the released drug was determined.

- decomposition of drug during the release test: does not decompose
Compound: Nc1nc(O)c2ncn(COC(CO)CO)c2n1 [ganciclovir]
